According to PubChem BioAssay (NCI):
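Assay format: 96-well plates, 48-hour exposure. GI50 = concentration required for 50% inhibition of growth. At the TGI there is no net growth.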

Assays:
Test in all cases: NCI anticancer screen, dose series, 48 h
SN12C renal = test system: SN12C renal
EKVX NSCLC = test system: EKVX NSCLC
SNB-19 CNS = test system: SNB-19 CNS
HS 578T breast = test system: HS 578T breast
UACC-62 melanoma = test system: UACC-62 melanoma
K-562 leukemia = test system: K-562 leukemia
NCI/ADR-RES ovarian = test system: NCI/ADR-RES ovarian
RPMI-8226 leukemia = test system: RPMI-8226 leukemia
MOLT-4 leukemia = test system: MOLT-4 leukemia
DU-145 prostate = test system: DU-145 prostate
LOX IMVI melanoma = test system: LOX IMVI melanoma
ACHN renal = test system: ACHN renal
SNB-75 CNS = test system: SNB-75 CNS
OVCAR-8 ovarian = test system: OVCAR-8 ovarian
MCF7 breast = test system: MCF7 breast
IGROV1 ovarian = test system: IGROV1 ovarian
CAKI-1 renal = test system: CAKI-1 renal
A549 NSCLC = test system: A549 NSCLC
MALME-3M melanoma = test system: MALME-3M melanoma
MDA-MB-435 = test system: MDA-MB-435
SR leukemia = test system: SR leukemia
OVCAR-4 ovarian = test system: OVCAR-4 ovarian
SK-MEL-2 melanoma = test system: SK-MEL-2 melanoma
RXF 393 renal = test system: RXF 393 renal
BT-549 breast = test system: BT-549 breast
PC-3 prostate = test system: PC-3 prostate
SF-295 CNS = test system: SF-295 CNS
SW-620 colon = test system: SW-620 colon
KM12 colon = test system: KM12 colon
SK-OV-3 ovarian = test system: SK-OV-3 ovarian
NCI-H460 lung = test system: NCI-H460 lung
HL-60(TB) leukemia = test system: HL-60(TB) leukemia
NCI-H522 lung = test system: NCI-H522 lung
HCT-15 colon = test system: HCT-15 colon
SF-539 CNS = test system: SF-539 CNS
TK-10 renal = test system: TK-10 renal
NCI-H226 lung = test system: NCI-H226 lung
U251 CNS = test system: U251 CNS
NCI-H23 lung = test system: NCI-H23 lung
MDA-MB-231 breast = test system: MDA-MB-231 breast
HT29 colon = test system: HT29 colon
UO-31 renal = test system: UO-31 renal
786-0 renal = test system: 786-0 renal
CCRF-CEM leukemia = test system: CCRF-CEM leukemia
HOP-62 NSCLC = test system: HOP-62 NSCLC
HOP-92 NSCLC = test system: HOP-92 NSCLC
COLO 205 colon = test system: COLO 205 colon
SF-268 CNS = test system: SF-268 CNS
M14 melanoma = test system: M14 melanoma
UACC-257 melanoma = test system: UACC-257 melanoma
OVCAR-3 ovarian = test system: OVCAR-3 ovarian
A498 renal = test system: A498 renal
HCC-2998 colon = test system: HCC-2998 colon
OVCAR-5 ovarian = test system: OVCAR-5 ovarian
T-47D breast = test system: T-47D breast
HCT-116 colon = test system: HCT-116 colon
SK-MEL-5 melanoma = test system: SK-MEL-5 melanoma
SK-MEL-28 melanoma = test system: SK-MEL-28 melanoma

## CCOc1nc(-c2ccccc2)cc2c(O)c(C(=O)N/N=C/c3ccc(O)cc3O)[nH]c(=O)c12
SN12C renal
  GI50: 2.43 µM
  TGI: > 39 µM
EKVX NSCLC
  GI50: 2.5 µM
  TGI: > 100 µM
SNB-19 CNS
  GI50: 1.42 µM
  TGI: > 46.8 µM
HS 578T breast
  GI50: 14 µM
  TGI: > 100 µM
UACC-62 melanoma
  GI50: 1.17 µM
K-562 leukemia
  GI50: 1.62 µM
  TGI: > 100 µM
NCI/ADR-RES ovarian
  GI50: 1.77 µM
  TGI: > 31.3 µM
RPMI-8226 leukemia
  GI50: 5.62 µM
  TGI: 43 µM
MOLT-4 leukemia
  GI50: 0.22 µM
  TGI: > 94.4 µM
DU-145 prostate
  GI50: 2.61 µM
  TGI: 25.5 µM
LOX IMVI melanoma
  GI50: 0.686 µM
  TGI: 9.11 µM
ACHN renal
  GI50: 1.79 µM
  TGI: > 35.5 µM
SNB-75 CNS
  GI50: 3.16 µM
  TGI: > 42 µM
OVCAR-8 ovarian
  GI50: 0.965 µM
  TGI: > 37.1 µM
MCF7 breast
  GI50: 2.17 µM
  TGI: > 32 µM
IGROV1 ovarian
  GI50: 4.08 µM
  TGI: 59.5 µM
CAKI-1 renal
  GI50: 1.91 µM
  TGI: > 29.5 µM
A549 NSCLC
  GI50: 6.5 µM
  TGI: > 100 µM
MALME-3M melanoma
  GI50: 2.86 µM
  TGI: > 40.5 µM
MDA-MB-435
  GI50: 4.05 µM
  TGI: > 100 µM
SR leukemia
  TGI: > 27.5 µM
OVCAR-4 ovarian
  GI50: 0.407 µM
  TGI: > 40.8 µM
SK-MEL-2 melanoma
  GI50: 5.1 µM
  TGI: 88.8 µM
RXF 393 renal
  GI50: 1.53 µM
  TGI: 11.9 µM
BT-549 breast
  GI50: 1.65 µM
  TGI: > 26.3 µM
PC-3 prostate
  GI50: 5.55 µM
  TGI: > 100 µM
SF-295 CNS
  GI50: 4.88 µM
  TGI: > 100 µM
SW-620 colon
  GI50: 1.88 µM
  TGI: > 100 µM
KM12 colon
  GI50: 5.73 µM
  TGI: > 100 µM
SK-OV-3 ovarian
  GI50: 1.26 µM
  TGI: > 24.7 µM
NCI-H460 lung
  GI50: 3.6 µM
  TGI: 27.6 µM
HL-60(TB) leukemia
  GI50: 1.44 µM
  TGI: 13.4 µM
NCI-H522 lung
  GI50: 1.29 µM
  TGI: 23.5 µM
HCT-15 colon
  GI50: 1.5 µM
  TGI: > 100 µM
SF-539 CNS
  GI50: 0.904 µM
  TGI: 6.06 µM
TK-10 renal
  GI50: 6.47 µM
  TGI: > 100 µM
NCI-H226 lung
  GI50: 1.49 µM
  TGI: 8.15 µM
U251 CNS
  GI50: 0.789 µM
  TGI: > 100 µM
NCI-H23 lung
  GI50: 4.66 µM
  TGI: > 82.8 µM
MDA-MB-231 breast
  GI50: 4.12 µM
  TGI: > 93 µM
HT29 colon
  GI50: 5.41 µM
  TGI: > 100 µM
UO-31 renal
  GI50: 1.52 µM
  TGI: 16 µM
786-0 renal
  GI50: 2.31 µM
  TGI: 8.34 µM
CCRF-CEM leukemia
  GI50: 0.357 µM
  TGI: > 23.2 µM
HOP-62 NSCLC
  GI50: 1.65 µM
  TGI: > 52.1 µM
HOP-92 NSCLC
  GI50: 4.42 µM
  TGI: > 100 µM
COLO 205 colon
  GI50: 0.751 µM
  TGI: 12.6 µM
SF-268 CNS
  GI50: 0.766 µM
  TGI: 16.4 µM
M14 melanoma
  GI50: 1.45 µM
  TGI: 7.16 µM
UACC-257 melanoma
  GI50: 2.93 µM
  TGI: 17.3 µM
OVCAR-3 ovarian
  GI50: 0.364 µM
  TGI: 10.6 µM
A498 renal
  GI50: 3.64 µM
  TGI: 28.5 µM
HCC-2998 colon
  GI50: 1.95 µM
  TGI: > 82.3 µM
OVCAR-5 ovarian
  GI50: 7.06 µM
  TGI: > 100 µM
T-47D breast
  GI50: 1.64 µM
  TGI: 50.1 µM
HCT-116 colon
  GI50: 0.66 µM
  TGI: 17.5 µM
SK-MEL-5 melanoma
  GI50: 1.48 µM
  TGI: > 57.6 µM
SK-MEL-28 melanoma
  GI50: 2.32 µM
  TGI: > 100 µM
